Converted amounts (≈) assume the structure as drawn. Bounds are passed on as bounds.

In one assay the test system is Candida spp. The assay is described as follows: Broth microdilution, summary over reference yeasts. In kind it is cell-based. The settings on record: for MFC / MIC / MFC/MIC: range over the reference Candida spp. strains; for antifungal activity in words: reference yeasts from Candida spp. In outline:
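Two-fold dilutions in RPMI 1640 with MOPS (fungi) or Mueller-Hinton broth (bacteria), final 1000–0.488 µg/mL, inoculum 0.5 McFarland in 0.85% NaCl. MIC read spectrophotometrically; MBC/MFC as lowest concentration with no visible growth after well contents were spotted onto agar.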

The test system of assay [1] is Micrococcus luteus ATCC 10240. In words: Broth microdilution MIC/MBC. To be noted: Micrococcus luteus, ATCC10240. (In general: Broth dilution looks for growth in wells or tubes with falling amounts of substance.)
Assay [2] relates to Salmonella typhimurium ATCC 14028. In words: Broth microdilution MIC/MBC. The settings on record: for MBC / MIC: Salmonella enterica; for MBC/MIC: Salmonella typhimurium ATCC 14028.

For `O=C(N/N=C/c1cc(I)cc(I)c1O)c1ccccc1I` [Compound 14, N-[(3,5-diiodo-2-hydroxyphenyl)methylidene]-2-iodobenzohydrazide], in the assay with Candida spp., the MFC (in general, the smallest concentration meeting the test's criterion for killing the fungus) was at least 1000 mg/L; the MIC (usually the least concentration at which growth counts as inhibited) fell in the range of 250 to 1000 mg/L (≈ 405 to 1620 µM); the “antifungal activity in words” value was “moderate or mild”. In assay [1], the MBC (usually the lowest tested concentration that kills the bacteria rather than only halting them) stood at 125 mg/L (≈ 202 µM) and the MIC was 62.5 mg/L (≈ 101 µM).
On to `O=C(N/N=C/c1cc(Cl)cc(I)c1O)c1cccc(I)c1` [Compound 20, N-[(5-chloro-2-hydroxy-3-iodophenyl)methylidene]-3-iodobenzohydrazide], for which, in the assay on Candida spp., the MFC/MIC is reported as over 4; the MIC is 125 to 500 mg/L (≈ 237 to 950 µM); the “antifungal activity in words” value was “good and moderate”. In assay [2], the MBC was over 1000 mg/L, the MIC came out at 1000 mg/L (≈ 1900 µM) and the MBC/MIC is on record as over 1. In assay [1], the minimal bactericidal concentration (MBC) amounted to 7.81 mg/L (≈ 14.8 µM) and the MIC came out at 1.95 mg/L (≈ 3.7 µM).
Consider `O=C(N/N=C/c1cc(Br)cc(Br)c1O)c1cccc(I)c1` [Compound 21, N-[(3,5-dibromo-2-hydroxyphenyl)methylidene]-3-iodobenzohydrazide], for which, in the assay with Candida spp., the MFC/MIC is over 4; the MIC is 125 to 500 mg/L (≈ 239 to 954 µM); the “antifungal activity in words” value is “good and moderate”. Further, in assay [2], the minimum inhibitory concentration (MIC) is over 1000 mg/L. In assay [1], the MBC was 15.6 mg/L (≈ 29.8 µM) and it took 3.91 mg/L (≈ 7.46 µM) to inhibit growth (MIC).
With `O=C(N/N=C/c1cc(Cl)cc(I)c1O)c1ccc(I)cc1` [Compound 27, N-[(5-chloro-2-hydroxy-3-iodophenyl)methylidene]-4-iodobenzohydrazide], in the assay with Candida spp., the minimal fungicidal concentration (MFC) was determined as 62.5 mg/L (≈ 119 µM), the MFC/MIC is 1–2, the MIC lay within 31.2 to 62.5 mg/L (≈ 59.4 to 119 µM) and the “antifungal activity in words” value is “good (good bioactivity as a MIC in the range 26 – 125 µg/mL)”. Further, in assay [2], the MBC was 1000 mg/L (≈ 1900 µM), the MIC came out at 500 mg/L (≈ 950 µM) and the MBC/MIC is reported as 2. For the same molecule, in assay [1], the MBC is 250 mg/L (≈ 475 µM) and the MIC came to 125 mg/L (≈ 237 µM).

The values are drawn from publication PMC11356900, “Synthesis, Structural Properties and Biological Activities of Novel Hydrazones of 2-, 3-, 4-Iodobenzoic Acid” (Molecules, 2024).
